For data set [1] the following is noted: collagen crosslinking/stabilization; cited from earlier work.
The test system of data set [2] is porcine carotid arteries exposed to porcine pancreatic elastase. Kind of data set: Tissue resistance to elastase degradation after treatment. The data set is classed as biochemical. As to conditions: 0.6% Glut, 0.15% PGG, 20 minutes total treatment (cocktail 20 min or 10 min + 10 min sequential); elastase 3 units/mL 24 hrs 37° C.; compared to saline controls. As for the experimental part: This example involves model results based on in vitro treatment of tissue samples for period of time that are realistic for in vivo applications. Specifically, tissue resistance to elastase degradation after treatment with various reagents is discussed. Specifically, porcine carotid arteries were treated with saline (control, for 20 minutes), Glut (for 20 minutes), PGG (for 20 minutes), or a combination of the two (Glut+PGG for 20 minutes, or Glut for 10 minutes followed by a separate incubation with PGG for 10 minutes). Concentrations of the reagents used were 0.6% (w/v) for Glut, 0.15% (w/v) for PGG and 9 g/L for physiological saline.
The treated tissue was then exposed to an in vitro elastase digestion assay to subject the treated tissue to digestion for 24 hrs. Briefly, tissue samples were incubated individually with 1 mL of 3 units/mL porcine pancreatic elastase (Elastin Products Company; Owensville, Mo.) dissolved in 100 mM Tris buffer, 1 mM CaCl2, 0.02% NaN3, pH 7.8. Incubation with the elastase was conducted for 24 hrs at 37° C. with orbital shaking at 500 rpm. Because the values shown are percentage of digestion, the lower the value, the better the reagent used performed in resisting elastase degradation. […] It should be noted that the digestion model used in this experiment is a very accelerated and aggressive digestion model.

Data set [3] deals with porcine aortic wall exposed to type I collagenase. Kind of data set: Tissue resistance to collagenase degradation after treatment. Type of data set: biochemical. As to conditions: type I collagenase 150 U/mL, 24 hours, 37° C.; fresh sample over 85% digested. As for the experimental part: Tissue resistance to collagenase degradation after treatment with various reagents is discussed. Specifically, samples of porcine aortic wall were either left untreated (fresh) or treated with Glut alone or Glut followed by tannic acid (TA). Glut treatment was performed with 0.6% (w/v) Glut for 1 day, and then 0.2% (w/v) Glut for 7 days at room temperature; Glut/TA treatment was performed with 0.6% (w/v) Glut for 1 day, and then 0.2% (w/v) Glut for 7 days at room temperature followed by 0.15% (w/v) TA for 4 days at 37° C. The treated samples were rinsed 3 times (1 hour each) in 100 mL water, and lyophilized to record dry weight. Samples with the amount of ˜15 to 25 mg dry weight were immersed in 1.2 mL of type I collagenase (150 U/mL) dissolved in 50 mM Tris buffer, 10 mM CaCl2, pH 7.4, and incubated at 37° C. with orbital shaking at 650 rpm for 24 hours. Following this exposure to collagenase, samples were centrifuged (10000 rpm, 10 minutes, 4° C.), individually rinsed three times in 1 mL water, lyophilized to obtain dry weight after collagenase, and the percent of digested tissue was calculated.
The percentage of tissue digestion was compared in graphical format in FIG. 4.

As to `COC(=O)C1=CO[C@@H](O)[C@@H]2C(CO)=CC[C@H]12` [genipin, Genipin], the toxicity result in data set [1] is on record as “relatively non-toxic”. As for `O=CCCCC=O` [Glut, Glutaraldehyde], the “percentage digestion by elastase (resistance to degradation)” value in data set [2] is listed as “slightly improved the resistance of the tissue to degradation”. Moreover, in data set [3], the “percent of digested tissue (mass loss)” value was “over 20%”.

The values are drawn from patent US20160136109A1, “COMPOSITIONS FOR TISSUE STABILIZATION” (Vatrix Medical, Inc., priority 2008, published 2016).
